Laboratory results as given in US7205295B2, “Benzoxazin-3-ones and derivatives thereof as therapeutic agents” (Warner-Lambert Company LLC, priority 2002, dated 2007).

Assays:
[1] = target: T1, PI3Kγ (p101/p110γ protein) (Homo sapiens, UniProt P48736); experiment: PI3Kγ In Vitro Kinase Assay; format: biochemical; conditions: purified recombinant p101/p110γ with G protein β1/γ2 subunits; 20 μM ATP, 25 μM PIP2; 20 minutes at room temperature
T1 construct: HA; made in house; host or cells: Spodoptera frugiperda (Sf9) cells, baculovirus co-infection
T1 sequence (P48736 whole entry, species assumed): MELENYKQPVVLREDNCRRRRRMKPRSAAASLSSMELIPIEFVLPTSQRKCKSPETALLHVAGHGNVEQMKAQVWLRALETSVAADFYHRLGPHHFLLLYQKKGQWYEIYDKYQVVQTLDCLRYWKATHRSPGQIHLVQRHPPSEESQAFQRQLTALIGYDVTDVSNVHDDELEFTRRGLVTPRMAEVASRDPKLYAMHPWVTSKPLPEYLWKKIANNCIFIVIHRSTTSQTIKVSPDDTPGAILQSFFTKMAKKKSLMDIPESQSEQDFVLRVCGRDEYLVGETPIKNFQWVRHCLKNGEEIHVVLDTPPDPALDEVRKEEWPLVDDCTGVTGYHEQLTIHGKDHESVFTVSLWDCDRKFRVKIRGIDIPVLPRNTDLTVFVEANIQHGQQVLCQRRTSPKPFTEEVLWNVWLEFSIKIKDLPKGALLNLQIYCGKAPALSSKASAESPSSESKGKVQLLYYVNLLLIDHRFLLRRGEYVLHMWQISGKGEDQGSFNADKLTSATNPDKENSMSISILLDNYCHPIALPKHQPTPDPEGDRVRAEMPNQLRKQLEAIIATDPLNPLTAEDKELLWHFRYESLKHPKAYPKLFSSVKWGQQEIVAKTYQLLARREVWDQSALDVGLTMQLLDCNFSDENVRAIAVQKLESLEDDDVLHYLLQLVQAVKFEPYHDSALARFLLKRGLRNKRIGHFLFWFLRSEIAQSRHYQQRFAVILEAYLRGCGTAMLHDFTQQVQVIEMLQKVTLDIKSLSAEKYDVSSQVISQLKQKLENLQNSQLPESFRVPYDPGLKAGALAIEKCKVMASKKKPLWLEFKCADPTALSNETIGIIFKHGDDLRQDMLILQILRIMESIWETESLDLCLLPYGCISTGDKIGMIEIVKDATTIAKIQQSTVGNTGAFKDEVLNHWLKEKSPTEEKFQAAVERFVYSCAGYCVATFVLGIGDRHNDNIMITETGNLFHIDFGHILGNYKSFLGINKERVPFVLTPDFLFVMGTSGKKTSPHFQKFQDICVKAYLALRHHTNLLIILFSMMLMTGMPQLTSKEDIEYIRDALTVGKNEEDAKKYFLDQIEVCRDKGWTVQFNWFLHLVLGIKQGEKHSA
T1 sequence (Q8WYR1 whole entry partner, species assumed): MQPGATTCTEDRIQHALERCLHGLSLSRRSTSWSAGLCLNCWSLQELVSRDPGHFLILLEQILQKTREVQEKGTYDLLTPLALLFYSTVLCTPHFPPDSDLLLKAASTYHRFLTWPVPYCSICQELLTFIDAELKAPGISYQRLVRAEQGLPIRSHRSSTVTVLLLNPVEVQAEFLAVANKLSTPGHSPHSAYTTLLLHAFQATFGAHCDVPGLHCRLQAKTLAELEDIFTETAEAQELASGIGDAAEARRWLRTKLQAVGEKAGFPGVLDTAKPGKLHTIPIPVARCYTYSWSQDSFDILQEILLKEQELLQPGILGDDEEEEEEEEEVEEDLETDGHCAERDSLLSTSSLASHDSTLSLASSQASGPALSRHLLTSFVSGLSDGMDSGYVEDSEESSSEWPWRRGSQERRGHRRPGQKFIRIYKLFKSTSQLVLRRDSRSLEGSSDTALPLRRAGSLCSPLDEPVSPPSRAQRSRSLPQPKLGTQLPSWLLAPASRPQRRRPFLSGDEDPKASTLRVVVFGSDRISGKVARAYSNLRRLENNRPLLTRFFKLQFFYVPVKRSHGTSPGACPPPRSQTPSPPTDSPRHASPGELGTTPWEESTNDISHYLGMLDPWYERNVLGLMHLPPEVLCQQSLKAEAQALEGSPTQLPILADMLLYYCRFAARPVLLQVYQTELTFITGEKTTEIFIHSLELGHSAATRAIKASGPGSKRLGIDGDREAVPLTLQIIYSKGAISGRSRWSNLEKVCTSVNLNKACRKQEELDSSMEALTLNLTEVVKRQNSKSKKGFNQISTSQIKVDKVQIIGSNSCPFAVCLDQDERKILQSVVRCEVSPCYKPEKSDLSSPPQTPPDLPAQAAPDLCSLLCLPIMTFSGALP
In short: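 Sf9-expressed, purified human p101/p110γ (2.7 nM) was activated by Gβ1/γ2 (57.7 nM) and reacted with 20 μM ATP plus [γ-32P]ATP on PIP2 (25 μM)/PE (300 μM) micelles with 10 mM MgCl2 in HEPES buffer. Reactions ran 20 min at room temperature. Filter-captured radiolabeled PIP3 was counted by scintillation.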

Compound | melting point | IC50 [1]
COc1cccc(CCN2C(=O)COc3ccc(C=C4SC(=S)NC4=O)cc32)c1 [Example 137, 4-[2-(3-Methoxy-phenyl)-ethyl]-6-(4-oxo-2-thioxo-thiazolidin-5-ylidenemethyl)-4H-1,4-benzoxazin-3-one] | 233 to 236 °C | 3 nM
Cc1ccc(CCN2C(=O)COc3ccc(C=C4SC(=S)NC4=O)cc32)cc1 [Example 138, 6-(4-Oxo-2-thioxo-thiazolidin-5-ylidenemethyl)-4-(2-p-tolyl-ethyl)-4H-1,4-benzoxazin-3-one] | 267 to 269 °C | 10 nM
O=C1NC(=S)SC1=Cc1ccc2c(c1)N(OCC1CCCCC1)C(=O)CO2 [Example 208, 4-Cyclohexylmethoxy-6-(4-oxo-2-thioxo-thiazolidin-5-ylidenemethyl)-4H-benzo[1,4]oxazin-3-.one] | 249 to 250 °C | 2 nM

Next, values leading:

melting point | IC50 [1] | Compound
> 300 °C | 2 nM | O=C1NC(=S)SC1=Cc1ccc2c(c1)N(OCc1ccc(C(F)(F)F)cc1)C(=O)CO2 [Example 207, 6-(4-Oxo-2-thioxo-thiazolidin-5-ylidenemethyl)-4-(4-trifluoromethyl-benzyloxy)-4H-benzo[1,4]oxazin-3-one]
> 300 °C | 74 nM | CC(C)(C)c1cc(CON2C(=O)COc3ccc(C=C4SC(=S)NC4=O)cc32)cc(C(C)(C)C)n1 [Example 209, 4-(2,6-Di-tert-butyl-pyridin-4-ylmethoxy)-6-(4-oxo-2-thioxo-thiazolidin-5-ylidenemethyl)-4H-benzo[1,4]oxazin-3-one]
